# From patent publication EP0658565A1, “Oral products” (UNILEVER PLC, priority 1993, dated 1995)
# Experiments:
# plaque bacteria = assay: in vitro anti-plaque test involving saliva reinoculation; type: cell-based; conditions: 20 minutes on plaque grown on enamel discs
# S.mutans = conditions: pH = 7; acid production by S.mutans
compound,measurement,setting,value
"O=P([O-])([O-])OP(=O)([O-])[O-].[Sn+2].[Sn+2] [Sn₂P₂O₇, stannous pyrophosphate, reference compound]",Relative Anti-Plaque Activity (% bacteria killed vs. control growth),plaque bacteria; Sn^II conc. 6000 ppm,76%
same,Concentration of Sn²⁺ in mmole to reach 100 % acid inhibition,S.mutans,1.02 mmol
"O=P([O-])([O-])O[C@H]1O[C@H](CO)[C@@H](O)[C@H](O)[C@H]1O.[Sn+2] [Sn G-1-P, stannous glucose-1-phosphate]",Relative Anti-Plaque Activity (% bacteria killed vs. control growth),plaque bacteria; Sn^II conc. 1188 ppm,32%
same,Relative Anti-Plaque Activity (% bacteria killed vs. control growth),plaque bacteria; Sn^II conc. 3594 ppm,96%
same,Relative Anti-Plaque Activity (% bacteria killed vs. control growth),plaque bacteria; Sn^II conc. 6000 ppm,98%
same,Concentration of Sn²⁺ in mmole to reach 100 % acid inhibition,S.mutans,0.2 mmol
stannous glucose-6-phosphate [Sn G-6-P],Relative Anti-Plaque Activity (% bacteria killed vs. control growth),plaque bacteria; Sn^II conc. 2406 ppm,22%
same,Relative Anti-Plaque Activity (% bacteria killed vs. control growth),plaque bacteria; Sn^II conc. 3594 ppm,75%
same,Relative Anti-Plaque Activity (% bacteria killed vs. control growth),plaque bacteria; Sn^II conc. 6000 ppm,88%
same,Concentration of Sn²⁺ in mmole to reach 100 % acid inhibition,S.mutans,0.25 mmol
